Assay results from patent US11090290B2, “Clonidine and/or clonidine derivatives for use in the prevention of skin injury resulting from radiotherapy” (MONOPAR THERAPEUTICS INC., priority 2015, dated 2021).

What was measured:
[1] = system: skin injury following radiotherapy in patients with head and neck cancer; conditions: mucoadhesive buccal tablet 50 μg once daily, from 1 to 3 days before radiotherapy until its end, up to 8 weeks; 50 to 70 Gray plus platinum-based chemotherapy; placebo group 38.7%
Method: These patients received, within 15 weeks after curative surgery, a cumulative radiation dose of radiation ranging from 50 to 70 Gray in oral cavity, based on a daily dosing between 1.8 and 2.2 Gy, combined with platinum-based chemotherapy, based on a weekly or tri-weekly cycle. Clonidine was administered in the form of a mucoadhesive tablet that was applied into the mouth, on the upper gum, for about 30 seconds, after which it remained in place for several hours. The treatment with clonidine hydrochloride started from 1 to 3 days before radiotherapy until the end of radiotherapy, for up to 8 weeks. Patients were evaluated twice a week during the radiotherapy period, then one month after stop of radiotherapy.

radiation skin injury = conditions: Journal of Clinical Oncology, Vol. 29, No 20, 2011; even worsened skin adverse reactions; cited from earlier work

Row | Compound | patients showing skin injury after treatment [1] [%] | effect on radiation skin injury compared to a placebo (radiation skin injury)
1 | Cl.Clc1cccc(Cl)c1NC1=NCCN1 [clonidine hydrochloride] | 25.5 | 
2 | palifermin |  | not to improve radiation skin injury compared to a placebo
